Laboratory results published in PubChem BioAssay (NCI).
Several values for one entry are separate records, joined by “and”; a condition that tells them apart may be missing. Equal entries are not always repeated.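 Each compound was tested at five concentrations against cells in 96-well plates for 48 hours. GI50 = concentration required for 50% inhibition of growth. TGI: total growth inhibition.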

Tested on: MDA-MB-468 breast
Assay: DTP human tumour cell line panel, 48 h

Row | Structure (SMILES) | GI50 | TGI
1 | O=C(COC(=O)[C@H](C[Se][Se]C[C@H](NC(=O)c1ccc(Br)cc1F)C(=O)OCC(=O)c1ccc(F)cc1)NC(=O)c1ccc(Br)cc1F)c1ccc(F)cc1 | 0.58 µM | 1.68 µM
2 | OCCn1c(-c2ccncc2)c(-c2ccc(F)cc2)c2ncccc21 | > 25 µM | > 25 µM
3 | CCNc1nc(-c2ccc(Cl)c(OC)c2)c(-c2ccnc(NCCNS(=O)(=O)c3ccc(Cl)cc3)n2)s1 | 1.96 µM | 5.61 µM
4 | COc1ccc(S(=O)(=O)NCCCNc2nccc(-c3c(-c4ccc(F)cc4)nc4sccn34)n2)cc1 | 4.3 µM | > 100 µM
5 | Oc1ccc(/C=N/Nc2nnc(N/N=C/c3ccc(O)cc3O)c3ccccc23)c(O)c1 | 0.355 µM | 1.77 µM
6 | CN1CCN(Cc2ccc(NC(=O)c3cncc(C#Cc4cnc5ccc(NCCCO)nn45)c3)cc2C(F)(F)F)CC1 | 0.087 µM | 0.228 µM
7 | COc1cc(/C=C/C(=O)c2c(-c3ccc(Cl)cc3)nc3sc(C)nn23)cc(OC)c1OC | 6.47 µM | > 100 µM
8 | Cc1cc(N(CCCl)CCCl)ccc1/C=N\NC(=O)c1cccnc1 | 1.46 µM | 5.41 µM
9 | O=C1C(=O)c2c(ccc3ccccc23)-c2ccccc21 | 1.56 µM | 3.26 µM
10 | CN(C)C(=O)c1cc2cnc(Nc3ccc(N4CCNCC4)cn3)nc2n1C1CCCC1 | 13.5 µM | 37.6 µM
11 | O=C(Nc1cccc(C(F)(F)F)c1)Nc1ccc(OCc2nnc(-c3ccccc3)o2)c(F)c1 | 2.57 µM | 13.9 µM
12 | COc1cc2c(cc1OCCCN1CCN(CCCn3c4ccccc4c4ccccc43)CC1)N=C[C@@H]1CCCN1C2=O | 0.0238 µM | 0.0677 µM
13 | CCc1c[nH]c2ncnc(N3CC[C@](N)(CNC(=O)c4ccc(F)cc4F)C3)c12 | 0.139 µM | 2.23 µM
14 | Fc1ccc(-c2cc3nc(C(Cl)Cl)nc(-c4ccc(F)cc4)n3n2)cc1 | 0.242 µM | 1.08 µM
15 | O=C(NCc1cccnc1)c1ccc([N+](=O)[O-])o1 | 5.31 µM | > 29 µM
16 | Cc1c(-c2ccc(N3CCc4cccc(C(=O)Nc5nc6ccccc6s5)c4C3)nc2C(=O)O)cnn1CC12CC3CC(CC(C3)C1)C2 | 6.58 µM | 26.5 µM
17 | Cc1cccc(Cc2cnc(NC(=O)CCCOc3ccc(Cl)cc3)s2)c1 | 1.74 µM | > 100 µM
18 | COc1cc(/C=N/n2cnc3oc(-c4ccccc4)cc3c2=N)cc(CN2CCCCC2)c1O | 1.8 µM | 3.65 µM
19 | COc1cc2nccc(Oc3ccc(NC(=O)C4(C(=O)Nc5ccc(F)cc5)CC4)cc3)c2cc1OC | > 10 µM and 4.35 µM | > 10 µM and 64.5 µM

Row | Structure (SMILES) | GI50 | TGI
20 | C/C=C\C(=O)O[C@@H]1CC2O[C@@H]3C=C(C)C(=O)C[C@]3(C)[C@]1(C)[C@]21CO1 | 0.567 µM | 2.13 µM
21 | CC(=O)OC1CCC2(C)C(=CCC3C4CC(CN5CC5)C(=O)C4(C)CCC32)C1 (centres undefined) | 1.68 µM | 4.49 µM
22 | CN1CCN(Cc2ccc(NC(=O)c3cncc(C#Cc4cnc5cccnn45)c3)cc2C(F)(F)F)CC1 | 1.97 µM | 8.22 µM
23 | CS(=O)(=O)Nc1ccc(Nc2c3ccccc3nc3cc(Cl)ccc23)cc1 | 1.99 µM | 9.88 µM
24 | Cn1c(=O)c(Oc2ccc(F)cc2F)cc2cnc(NC3CCC(O)CC3)nc21 (centres undefined) | > 25 µM | > 25 µM
25 | COc1ccc(C[C@H](N)C(=O)N[C@@H]2[C@@H](CO)OC(n3cnc4c(N(C)C)ncnc43)[C@@H]2O)cc1 (some centres undefined) | 0.134 µM | 0.678 µM
26 | CC(=O)Nc1ccc(C(=O)COc2cccc(/C=C3\CCc4ccccc4C3=O)c2)cc1 | 3.63 µM | > 100 µM
27 | O=C(c1ccccc1)c1ccc(N2C(=O)C3C4c5ccccc5C(/C=C/C(=O)c5ccccn5)(c5ccccc54)C3C2=O)cc1 (centres undefined) | 2.39 µM | 6.99 µM
28 | O=C(Nc1cccc(C(F)(F)F)c1)Nc1cc(S(=O)(=O)NC2CC2)ccc1-c1ccsc1 | 3.1 µM | 13.8 µM
29 | O=C1COc2c(CCNCCN(C(=O)CCNCCc3ccc(Cl)c(Cl)c3)C3CCCCC3)ccc(O)c2N1 | 2.77 µM | 9.42 µM
30 | COc1cc(-c2nn(-c3cccc(NC(=O)c4cccc(C(F)(F)F)c4)c3)cc2-c2ccncc2)ccc1Cl | 1.32 µM | 4.56 µM
31 | Nc1ccc(N)c2c1C(=O)c1cccc([N+](=O)[O-])c1C2=O | 3.41 µM | > 56.8 µM
32 | c1csc(-c2[nH]nc3c2CCc2ccccc2-3)c1 | 0.175 µM | 0.494 µM
33 | CCC(=C(c1ccc(OCCN(CC)CC)cc1)c1ccc(OCCN(CC)CC)cc1)c1ccc(Cl)cc1 | 0.535 µM | 1.05 µM
34 | CC[C@@H](CO)Nc1ccc2ncc(C#Cc3cncc(C(=O)Nc4ccc(CN5CCN(C)CC5)c(C(F)(F)F)c4)c3)n2n1 | 0.0779 µM | 0.194 µM
35 | CCn1c(SC)nnc1-c1cc2c([nH]c3ccccc32)c(-c2cccc(O)c2)n1 | 0.598 µM | 8.22 µM
36 | C/C(=N\NC(=O)c1ccncc1)c1ccccc1O | 2.04 µM | 9.06 µM
37 | COc1ccc(Cl)cc1Nc1nc(C(F)(F)F)ccc1C(=O)N/N=C/c1ccc(Cl)cc1 | 3.96 µM | > 100 µM
